# Source: US12403125B2, “Use of Ovatodiolide against SARS-CoV-2” (Peking University Shenzhen Graduate School, priority 2020, dated 2025)
# Key:
# [1] = mice; for number of micronuclei in the reticulocytes vs negative control / number of reticulocytes in peripheral blood vs negative control: 48 and 72 hours after administration
# Method: In this experiment, the Formula I compound—Ovatodiolide on the peripheral blood micronucleus was tested in mice (ICR strain). This experiment mainly tested the effect of the Formula I compound—Ovatodiolide on the ratio of the occurrence of micronucleus in the peripheral blood of the mice (in vivo), so as to evaluate the level of damages caused by directly or indirectly triggered gene mutations of erythrocyte chromosomes or mitosis. ICR mice were used as the experimental subjects of this experiment, and the experiment was divided into 5 groups, the negative control group, the positive control group (Cyclophosphamide, 60 mg/kg bw ip), the Formula I compound—Ovatodiolide low dose (0.25 g/kg bw) group, the medium Dosage (0.5 g/kg bw) group and the high dose (1 g/kg bw) group, 5 mice (male) in each group, and Ovatodiolide was fed once by a gastric tube, 48 and 72 hours after the tested substances were administered, the reticulocytes and the occurrence (%) of micronucleus in the reticulocytes in the peripheral blood of the mice were evaluated.
# [2] = Single-dose oral acute toxicity test in rats; format: in vivo, rats (Sprague-Dawley, S D strain)
# Method: This example was a single-dose oral acute toxicity safety test of the Formula I compound—Ovatodiolide in rats, and a reference for food safety assessment was provided. […] In this experiment, single-dose oral acute toxicity tests of the Formula I compound—ovatodiolide were conducted in rats (Sprague-Dawley, S D strain). The Formula I compound—Ovatodiolide was in the form of yellowish crystals, the test purity was 99.95%, 10% of DMSO was used to prepare a solution concentration of 0.1 g/mL during the experiment, the feeding volume of each rat was 10 mL/kg body weight, the rats were fed orally based on their body weights on that day, the final dose was 1 g/kg-body weight in total, and the rats were continuously observed for 14 days after administration. […] No effects on the serum liver and kidney enzyme values of the male and female rats in the treatment group, including aspartate aminotransferase (AST), alanine aminotransferase (ALT), blood urea nitrogen (BUN), and creatinine, etc.
# [3] = 28-day feeding (repeated dose oral) toxicity test in rats; format: in vivo, rats (Sprague-Dawley, S D strain)
# Method: This experiment investigated whether the Formula I compound—Ovatodiolide might cause potential side effect toxicity to human bodies for clinical safety assessment, and 28-day repeated-dose oral toxicity tests of the Formula I compound—Ovatodiolide were conducted to observe clinical side effects. The Formula I compound—Ovatodiolide was a yellowish crystal, the test purity was regarded as 99.95%, and the samples were prepared with 5% of DMSO during the tests. Rats (Sprague-Dawley, S D strain) were divided into 4 groups, the control group (5% of DMSO), the low-dose group (10 mg/kg-body weight), the medium-dose group (25 mg/kg body weight) and the high-dose group (50 mg/kg-body weight), 20 rats in each group, half males and half females, each rat was fed with a volume of 10 mL/kg-body weight, and the rats were orally fed according to their body weight on the day for 28 consecutive days. […] In view of the above test results, after the rats of the low-dose group (10 mg/kg-body weight), the medium-dose group (25 mg/kg-body weight) and the high-dose group (50 mg/kg-body weight) were orally fed respectively with the Formula I compound—Ovatodiolide for 28 days continuously, no toxic reactions was caused to various organs of the male and female rats, and the “No observed adverse effect level” (NOAEL) for the 28-day feeding toxicity test in rats was 50 mg/kg-body weight, the equivalent human dose was about 8 mg/kg-body weight.
# HIV virus = details: Fitoterapia, 2000, 71(5): 574-576; cited from earlier work
# SARS-CoV-2 pseudovirus = experiment: microbe, parasite or virus in culture; format: cell-based
# influenza virus = experiment: Test experiments on influenza virus in contrast to Tamiflu
# CHO-K1 cells = experiment: In vitro mammalian chromosome aberration test, with cytotoxicity test; format: cell-based; details: for survival rate of the CHO-K1 cells: 24 hours
# Method: In this experiment, the chromosomal aberration test with mammalian cell in culture of the Formula I compound—Ovatodiolide was carried out. The Formula I compound—Ovatodiolide was yellowish crystals, and prepared with Dimethyl sulfoxide (DMSO) during the test. The cytotoxicity test was divided into two parts, in one part, CHO-K1 cells was reacted directly with the Formula I compound—Ovatodiolide, and in the other part, rat liver activating enzyme extract (S9) was used to simulate human metabolism, CHO-K1 cells, the rat liver activating enzyme extract (S9) and the Formula I compound—Ovatodiolide were mixed and then reacted.
# [4] = male and female rats, 1 g/kg-body weight oral
smiles,measurement,setting,value
"O=P1(N(CCCl)CCCl)NCCCO1 (stereo not drawn) [Cyclophosphamide, reference compound]",number of micronuclei in the reticulocytes vs negative control,[1],increased significantly
same,number of reticulocytes in peripheral blood vs negative control,[1],significantly decreased
C=C1C(=O)O[C@@H]2/C=C(\C)C[C@H]3C=C(CC/C=C(\C)CC[C@@H]12)C(=O)O3 [Ovatodiolide],equivalent human dose of the single acute dose,[2]; from 1 g/Kg-body weight in rats,about 50 mg/kg-body weight
same,"blood values (WBC, RBC, Hct, MCV, MCH, MCHC, platelets, leukocyte classification)",[2]; [4],no significant abnormal changes
same,"serum liver and kidney enzyme values (AST, ALT, BUN, creatinine)",[2]; [4],No effects
same,weekly body weight and body weight gain vs control group,[2]; [4],no significant difference
same,histopathological examination of important organs,"[2]; rats, 1 g/kg-body weight oral",no histopathological changes in relation to the test substances
same,acute poisoning or death,"[2]; rats, single oral dose 1 g/Kg-body weight, observed 14 days",no acute poisoning or death
same,equivalent human dose of the NOAEL,"[3]; from rat NOAEL, 28-day feeding",about 8 mg/kg-body weight
same,histopathological examination of organs,"[3]; high-dose group (50 mg/kg-body weight), 28 days",no pathological changes related to organ toxicity reaction
same,"body weight changes, feed consumptions, urine, blood values, serum enzyme values and organ weights vs control","[3]; male and female rats, each treatment group, 28 days",within the normal range
same,symptoms of being poisoned or death,"[3]; rats, oral 10, 25 and 50 mg/kg-body weight, 28 days",no symptoms of being poisoned or death
same,No observed adverse effect level (NOAEL),"[3]; rats, oral, 28 consecutive days",50 mg/kg-body weight
same,inhibition of HIV virus,HIV virus,can inhibit HIV virus
same,inhibitory effect on coronavirus infections,SARS-CoV-2 pseudovirus,significant inhibitory effect on coronavirus infections at the micromolar level
same,IC50,"SARS-CoV-2 pseudovirus; Severe acute respiratory syndrome-related coronavirus, Huh-7, 64 h, read-out: IC50 for inhibiting SARS-CoV-2 infections",3.73 µM
same,effect on inhibiting influenza virus,influenza virus,excellent effect on inhibiting influenza virus
same,survival rate of the CHO-K1 cells,"CHO-K1 cells; 17.5 μM, without S9 (−S9)",about 65.6%
same,survival rate of the CHO-K1 cells,"CHO-K1 cells; 75 μM, with S9 (+S9)",about 60.3%
same,frequency of chromosomal aberration in the CHO-K1 cells vs negative control,"CHO-K1 cells; 12.5, 15 and 17.5 μM (−S9) and 55, 65 and 75 μM (+S9)",did not increase significantly
same,number of micronuclei in the reticulocytes vs negative control,[1],no significant difference
same,number of reticulocytes in peripheral blood vs negative control,[1],no significant difference
same,micronucleus test result,[1]; each dose group,negative
same,toxicity symptoms and body weight,"[1]; single gastric tube dose 0.25, 0.5, 1 g/kg bw, 48 and 72 hours",no toxicity symptoms and no differences in the body weight
